Assay results from PubChem BioAssay (NCI).
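Compound exposure: 48 hours, 5 concentrations, 96-well plates. GI50: concentration for 50% inhibition of growth. At the TGI there is no net growth.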

The compounds below were run on A549 NSCLC (assay: DTP human tumour cell line panel, 48 h).

First: CC(C)(C)C1=CC(=CC=C2C=CN(CCCCCCCCCCCO)C=C2)C=C(C(C)(C)C)C1=O
Second: CCCCCCCCCCC(O)C1CCC(C2CCC(C(O)CCCCC(O)CCCCCC(O)CC3=CC(C)OC3=O)O2)O1 (stereo not drawn)
The TGI of the first is lower: 3.58 µM for the first, over 25 µM for the second.

Going from `CSc1ccc(C2C(Cl)C(=O)N2NC(=O)c2c(Cl)c(Cl)c(Cl)c(Cl)c2-c2nc3ccccc3[nH]2)cc1` (stereo not drawn) to `O=C1NC(Nc2cccc(Cl)c2)=N/C1=C\c1ccc(Cl)c(Cl)c1`, the TGI falls from over 100 µM to 16 µM.

`CC(C)CC(N)C(=O)O` (stereo not drawn) was tested, and the TGI was over 100 µM.

With `CCCCCCCCCCC(O)C1CCC(C2CCC(C(O)CCCCC(O)CCCCCC(O)CC3=CC(C)OC3=O)O2)O1` (stereo not drawn) the GI50 was 1.93 µM.

The compounds below were run on HOP-62 NSCLC (assay: DTP human tumour cell line panel, 48 h).

Compared with `N#CC1=C(N2CCCC2)NC(=O)CC1=O`, `O=C1NC(Nc2cccc(Cl)c2)=N/C1=C\c1ccc(Cl)c(Cl)c1` is lower in TGI: over 100 µM for the first, 23.4 µM for the second.

First: CC(C)(C)C1=CC(=CC=C2C=CN(CCCCCCCCCCCO)C=C2)C=C(C(C)(C)C)C1=O
Second: CCCCCCCCCCC(O)C1CCC(C2CCC(C(O)CCCCC(O)CCCCCC(O)CC3=CC(C)OC3=O)O2)O1 (stereo not drawn)
The TGI of the first is lower: 3.63 µM for the first, over 25 µM for the second.

`CSc1ccc(C2C(Cl)C(=O)N2NC(=O)c2c(Cl)c(Cl)c(Cl)c(Cl)c2-c2nc3ccccc3[nH]2)cc1` (stereo not drawn) and `CC(C)CC(N)C(=O)O` (stereo not drawn) cannot be ordered by TGI: over 100 µM for the first, over 100 µM for the second.

With `CCCCCCCCCCC(O)C1CCC(C2CCC(C(O)CCCCC(O)CCCCCC(O)CC3=CC(C)OC3=O)O2)O1` (stereo not drawn) the GI50 was 7.3 µM.

Each compound was assayed on SK-MEL-28 melanoma (assay: DTP human tumour cell line panel, 48 h).

`N#CC1=C(N2CCCC2)NC(=O)CC1=O` and `O=C(c1ccc(Cl)cc1Cl)N(C(=O)N1CCCCC1)c1ccccc1` cannot be ordered by TGI: over 100 µM for the first, over 100 µM for the second.

First: CC(C)(C)C1=CC(=CC=C2C=CN(CCCCCCCCCCCO)C=C2)C=C(C(C)(C)C)C1=O
Second: CCCCCCCCCCC(O)C1CCC(C2CCC(C(O)CCCCC(O)CCCCCC(O)CC3=CC(C)OC3=O)O2)O1 (stereo not drawn)
The TGI of the first is lower: 3 µM for the first, over 25 µM for the second.

`CSc1ccc(C2C(Cl)C(=O)N2NC(=O)c2c(Cl)c(Cl)c(Cl)c(Cl)c2-c2nc3ccccc3[nH]2)cc1` (stereo not drawn) and `O=C1NC(Nc2cccc(Cl)c2)=N/C1=C\c1ccc(Cl)c(Cl)c1` are within 1.5-fold of each other in TGI: 44.4 µM for the first, 32.1 µM for the second.

Compound `CC(C)CC(N)C(=O)O` (stereo not drawn) has a TGI of over 100 µM.

Compound `CCCCCCCCCCC(O)C1CCC(C2CCC(C(O)CCCCC(O)CCCCCC(O)CC3=CC(C)OC3=O)O2)O1` (stereo not drawn) has a GI50 of 4.28 µM.

Each compound was assayed on TK-10 renal (assay: DTP human tumour cell line panel, 48 h).

`N#CC1=C(N2CCCC2)NC(=O)CC1=O` and `O=C(c1ccc(Cl)cc1Cl)N(C(=O)N1CCCCC1)c1ccccc1` cannot be ordered by TGI: over 100 µM for the first, over 100 µM for the second.

Compared with `CC(C)(C)C1=CC(=CC=C2C=CN(CCCCCCCCCCCO)C=C2)C=C(C(C)(C)C)C1=O`, `CCCCCCCCCCC(O)C1CCC(C2CCC(C(O)CCCCC(O)CCCCCC(O)CC3=CC(C)OC3=O)O2)O1` (stereo not drawn) is higher in TGI: 3.67 µM for the first, over 25 µM for the second.

Compared with `CC(C)CC(N)C(=O)O` (stereo not drawn), `O=C1NC(Nc2cccc(Cl)c2)=N/C1=C\c1ccc(Cl)c(Cl)c1` is lower in TGI: over 100 µM for the first, 22.4 µM for the second.

Compound `CCCCCCCCCCC(O)C1CCC(C2CCC(C(O)CCCCC(O)CCCCCC(O)CC3=CC(C)OC3=O)O2)O1` (stereo not drawn) has a GI50 of 1.98 µM.

What follows are compounds tested on U251 CNS (assay: DTP human tumour cell line panel, 48 h).

`N#CC1=C(N2CCCC2)NC(=O)CC1=O` and `O=C(c1ccc(Cl)cc1Cl)N(C(=O)N1CCCCC1)c1ccccc1` cannot be ordered by TGI: over 100 µM for the first, over 100 µM for the second.

First: CC(C)(C)C1=CC(=CC=C2C=CN(CCCCCCCCCCCO)C=C2)C=C(C(C)(C)C)C1=O
Second: CCCCCCCCCCC(O)C1CCC(C2CCC(C(O)CCCCC(O)CCCCCC(O)CC3=CC(C)OC3=O)O2)O1 (stereo not drawn)
The TGI of the first is lower: 2.68 µM for the first, over 25 µM for the second.

First: CC(C)CC(N)C(=O)O (stereo not drawn)
Second: O=C1NC(Nc2cccc(Cl)c2)=N/C1=C\c1ccc(Cl)c(Cl)c1
The TGI of the first is higher: over 100 µM for the first, 14.6 µM for the second.

In the case of `CCCCCCCCCCC(O)C1CCC(C2CCC(C(O)CCCCC(O)CCCCCC(O)CC3=CC(C)OC3=O)O2)O1` (stereo not drawn), the GI50 is reported as 5.65 µM.

The compounds below were run on CAKI-1 renal (assay: DTP human tumour cell line panel, 48 h).

`N#CC1=C(N2CCCC2)NC(=O)CC1=O` and `O=C(c1ccc(Cl)cc1Cl)N(C(=O)N1CCCCC1)c1ccccc1` cannot be ordered by TGI: over 100 µM for the first, over 100 µM for the second.

Compared with `CC(C)(C)C1=CC(=CC=C2C=CN(CCCCCCCCCCCO)C=C2)C=C(C(C)(C)C)C1=O`, `CCCCCCCCCCC(O)C1CCC(C2CCC(C(O)CCCCC(O)CCCCCC(O)CC3=CC(C)OC3=O)O2)O1` (stereo not drawn) is higher in TGI: 6.7 µM for the first, over 25 µM for the second.

First: CSc1ccc(C2C(Cl)C(=O)N2NC(=O)c2c(Cl)c(Cl)c(Cl)c(Cl)c2-c2nc3ccccc3[nH]2)cc1 (stereo not drawn)
Second: O=C1NC(Nc2cccc(Cl)c2)=N/C1=C\c1ccc(Cl)c(Cl)c1
The TGI of the first is 2.3-fold higher: 42.8 µM for the first, 18.4 µM for the second.

In the case of `CC(C)CC(N)C(=O)O` (stereo not drawn), the TGI is reported as over 100 µM.

What follows are compounds tested on T-47D breast (assay: DTP human tumour cell line panel, 48 h).

First: N#CC1=C(N2CCCC2)NC(=O)CC1=O
Second: O=C1NC(Nc2cccc(Cl)c2)=N/C1=C\c1ccc(Cl)c(Cl)c1
The TGI of the first is higher: over 100 µM for the first, 14.2 µM for the second.

First: CC(C)(C)C1=CC(=CC=C2C=CN(CCCCCCCCCCCO)C=C2)C=C(C(C)(C)C)C1=O
Second: CCCCCCCCCCC(O)C1CCC(C2CCC(C(O)CCCCC(O)CCCCCC(O)CC3=CC(C)OC3=O)O2)O1 (stereo not drawn)
The TGI of the first is lower: 2.7 µM for the first, over 25 µM for the second.

First: CSc1ccc(C2C(Cl)C(=O)N2NC(=O)c2c(Cl)c(Cl)c(Cl)c(Cl)c2-c2nc3ccccc3[nH]2)cc1 (stereo not drawn)
Second: CC(C)CC(N)C(=O)O (stereo not drawn)
The TGI of the first is lower: 12.3 µM for the first, over 100 µM for the second.

In the case of `CCCCCCCCCCC(O)C1CCC(C2CCC(C(O)CCCCC(O)CCCCCC(O)CC3=CC(C)OC3=O)O2)O1` (stereo not drawn), the GI50 is reported as 7.17 µM.

These compounds were tested on IGROV1 ovarian (assay: DTP human tumour cell line panel, 48 h).

`N#CC1=C(N2CCCC2)NC(=O)CC1=O` and `O=C(c1ccc(Cl)cc1Cl)N(C(=O)N1CCCCC1)c1ccccc1` cannot be ordered by TGI: over 100 µM for the first, over 100 µM for the second.

`CC(C)(C)C1=CC(=CC=C2C=CN(CCCCCCCCCCCO)C=C2)C=C(C(C)(C)C)C1=O` and `CSc1ccc(C2C(Cl)C(=O)N2NC(=O)c2c(Cl)c(Cl)c(Cl)c(Cl)c2-c2nc3ccccc3[nH]2)cc1` (stereo not drawn) are within 1.5-fold of each other in TGI: 2.26 µM for the first, 2.14 µM for the second.
